Assay results published in patent US12030878B2 (BRISTOL-MYERS SQUIBB COMPANY, priority 2017, dated 2024).

Columns and labels:
Assay type in all cases: cell-based
[1] = target: T1, human TLR7 (Homo sapiens, UniProt Q9NYK1); assay: TLR7 inhibition reporter assay (HEK-Blue SEAP); details: HEK-Blue cells overexpressing human TLR7, stimulated with gardiquimod 7.5 μM, 22 hour incubation
T1 construct: host or cells: HEK-Blue cells
T1 sequence (Q9NYK1 27-1049): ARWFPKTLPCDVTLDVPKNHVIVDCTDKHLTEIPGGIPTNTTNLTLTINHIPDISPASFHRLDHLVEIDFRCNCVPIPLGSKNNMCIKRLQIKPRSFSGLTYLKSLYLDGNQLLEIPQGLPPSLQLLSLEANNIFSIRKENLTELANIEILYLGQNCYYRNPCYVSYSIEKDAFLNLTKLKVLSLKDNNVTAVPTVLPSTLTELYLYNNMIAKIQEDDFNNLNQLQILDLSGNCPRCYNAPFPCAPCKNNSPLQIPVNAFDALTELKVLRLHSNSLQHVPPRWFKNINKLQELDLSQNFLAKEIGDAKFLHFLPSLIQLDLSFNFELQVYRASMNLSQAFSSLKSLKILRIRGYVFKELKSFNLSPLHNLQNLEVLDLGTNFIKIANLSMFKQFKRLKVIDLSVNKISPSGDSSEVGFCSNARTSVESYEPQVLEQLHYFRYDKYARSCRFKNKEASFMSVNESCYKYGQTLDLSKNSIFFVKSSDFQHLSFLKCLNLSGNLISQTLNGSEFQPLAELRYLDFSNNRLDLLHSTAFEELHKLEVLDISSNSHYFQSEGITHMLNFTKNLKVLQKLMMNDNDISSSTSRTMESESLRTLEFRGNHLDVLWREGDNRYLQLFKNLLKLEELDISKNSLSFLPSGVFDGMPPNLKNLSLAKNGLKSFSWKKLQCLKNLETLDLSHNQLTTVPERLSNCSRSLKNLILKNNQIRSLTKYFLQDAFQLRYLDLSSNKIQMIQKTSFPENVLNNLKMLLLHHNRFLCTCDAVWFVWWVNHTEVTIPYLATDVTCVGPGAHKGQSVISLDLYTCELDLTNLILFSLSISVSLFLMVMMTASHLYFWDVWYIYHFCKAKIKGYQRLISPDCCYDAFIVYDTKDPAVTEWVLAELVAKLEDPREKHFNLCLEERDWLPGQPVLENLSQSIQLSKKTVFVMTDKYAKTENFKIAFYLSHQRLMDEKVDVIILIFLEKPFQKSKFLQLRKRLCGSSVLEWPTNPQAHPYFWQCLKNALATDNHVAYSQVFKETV
How it was run: (§1)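 SEAP read-out via HEK-Blue Detection medium after 22 h at 37 °C; percent inhibition relative to agonist-plus-DMSO and known-inhibitor wells. Agonists: TLR7 gardiquimod 7.5 μM, TLR8 R848 15.9 μM, TLR9 ODN2006 5 nM. Dose range 0.05 nM–50 μM, 30 min compound pre-treatment at RT.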

[2] = target: T2, human TLR8 (Homo sapiens, UniProt Q9NR97); assay: TLR8 inhibition reporter assay (HEK-Blue SEAP); details: HEK-Blue cells overexpressing human TLR8, stimulated with R848 15.9 μM, 22 hour incubation
T2 construct: host or cells: HEK-Blue cells
T2 sequence (Q9NR97 27-1041): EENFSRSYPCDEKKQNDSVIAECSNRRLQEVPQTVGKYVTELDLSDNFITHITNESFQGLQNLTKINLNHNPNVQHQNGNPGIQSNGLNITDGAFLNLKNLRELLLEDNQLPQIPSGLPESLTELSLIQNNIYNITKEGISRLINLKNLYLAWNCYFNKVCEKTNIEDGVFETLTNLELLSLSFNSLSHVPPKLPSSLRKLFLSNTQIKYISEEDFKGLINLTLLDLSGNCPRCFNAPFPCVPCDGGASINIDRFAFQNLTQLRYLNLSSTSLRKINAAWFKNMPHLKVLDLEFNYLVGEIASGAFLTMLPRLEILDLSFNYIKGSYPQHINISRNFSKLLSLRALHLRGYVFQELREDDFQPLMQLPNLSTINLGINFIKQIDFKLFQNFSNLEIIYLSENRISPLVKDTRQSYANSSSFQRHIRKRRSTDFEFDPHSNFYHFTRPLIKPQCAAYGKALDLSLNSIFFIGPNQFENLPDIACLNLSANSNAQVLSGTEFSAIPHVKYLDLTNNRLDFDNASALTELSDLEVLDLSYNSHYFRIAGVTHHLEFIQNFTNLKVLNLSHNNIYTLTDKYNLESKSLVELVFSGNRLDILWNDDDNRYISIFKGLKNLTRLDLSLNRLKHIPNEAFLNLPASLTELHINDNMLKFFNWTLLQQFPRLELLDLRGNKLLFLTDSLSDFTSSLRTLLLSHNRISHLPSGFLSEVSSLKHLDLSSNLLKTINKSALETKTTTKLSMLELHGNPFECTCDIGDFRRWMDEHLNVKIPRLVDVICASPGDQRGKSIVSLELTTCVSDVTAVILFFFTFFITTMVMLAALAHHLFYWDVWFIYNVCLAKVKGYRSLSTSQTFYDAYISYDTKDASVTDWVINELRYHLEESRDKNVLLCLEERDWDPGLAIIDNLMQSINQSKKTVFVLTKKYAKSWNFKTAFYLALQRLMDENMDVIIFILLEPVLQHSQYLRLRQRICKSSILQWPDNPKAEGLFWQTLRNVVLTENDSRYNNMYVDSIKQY
How it was run: as §1

[3] = target: T3, human TLR9 (Homo sapiens, UniProt Q9NR96); assay: TLR9 inhibition reporter assay (HEK-Blue SEAP); details: HEK-Blue cells overexpressing human TLR9, stimulated with ODN2006 5 nM, 22 hour incubation
T3 construct: host or cells: HEK-Blue cells
T3 sequence (Q9NR96 26-1032): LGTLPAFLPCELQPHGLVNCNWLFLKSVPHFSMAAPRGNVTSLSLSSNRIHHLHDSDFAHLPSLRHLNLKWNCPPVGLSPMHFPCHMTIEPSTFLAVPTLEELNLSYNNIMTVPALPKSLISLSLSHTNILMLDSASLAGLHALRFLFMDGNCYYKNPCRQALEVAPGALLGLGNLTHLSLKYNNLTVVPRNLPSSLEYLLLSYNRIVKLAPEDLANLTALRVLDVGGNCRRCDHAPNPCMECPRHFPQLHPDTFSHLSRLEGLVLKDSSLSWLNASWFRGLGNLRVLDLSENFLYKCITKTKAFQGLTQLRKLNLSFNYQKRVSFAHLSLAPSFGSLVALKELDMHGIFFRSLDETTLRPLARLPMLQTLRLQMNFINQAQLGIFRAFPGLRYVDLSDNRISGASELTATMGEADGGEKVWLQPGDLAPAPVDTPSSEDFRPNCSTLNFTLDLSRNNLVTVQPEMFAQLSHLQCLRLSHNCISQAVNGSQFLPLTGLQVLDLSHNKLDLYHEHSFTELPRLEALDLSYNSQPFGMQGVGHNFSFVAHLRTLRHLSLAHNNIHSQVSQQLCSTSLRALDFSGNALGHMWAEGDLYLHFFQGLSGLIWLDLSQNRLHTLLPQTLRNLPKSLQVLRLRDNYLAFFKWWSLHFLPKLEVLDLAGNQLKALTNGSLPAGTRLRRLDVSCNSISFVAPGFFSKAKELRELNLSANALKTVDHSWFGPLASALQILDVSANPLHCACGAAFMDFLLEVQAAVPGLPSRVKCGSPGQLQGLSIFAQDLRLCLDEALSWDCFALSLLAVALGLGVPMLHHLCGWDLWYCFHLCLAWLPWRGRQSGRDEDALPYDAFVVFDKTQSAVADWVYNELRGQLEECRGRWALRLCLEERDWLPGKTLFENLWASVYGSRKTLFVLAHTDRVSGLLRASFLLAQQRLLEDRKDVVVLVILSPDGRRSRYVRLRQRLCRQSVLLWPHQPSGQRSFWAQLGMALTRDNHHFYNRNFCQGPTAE
How it was run: as §1

**Q.** `CNC(=O)CN1CCC(Oc2ccc3[nH]c(-c4cc(C)c5ncnn5c4)c(C(C)C)c3c2)CC1` [Example 114, 2-(4-((3-isopropyl-2-(8-methyl-[1,2,4]triazolo[1,5-a]pyridin-6-yl)-1H-indol-5-yl)oxy)piperidin-1-yl)-N-methylacetamide] was tested. Which IC50 [1] did it give?
**A.** 0.001 µM

**Q.** And the IC50 [2]?
**A.** 0.0051 µM

**Q.** And the IC50 [3]?
**A.** 31.6 µM

**Q.** With `CNC(=O)CN1CCC(COc2ccc3[nH]c(-c4cn(C)c(=O)c(C)c4C)c(C(C)C)c3c2)CC1` [Example 116, 2-(4-(((3-isopropyl-2-(1,4,5-trimethyl-6-oxo-1,6-dihydropyridin-3-yl)-1H-indol-5-yl)oxy)methyl)piperidin-1-yl)-N-methylacetamide] as the compound, how does the IC50 [1] read?
**A.** 0.0161 µM

**Q.** What about the IC50 [2] of the same compound?
**A.** 0.0053 µM

**Q.** And the IC50 [3]?
**A.** 17 µM

**Q.** `COc1ccc(-c2[nH]c3ccc(OCC(=O)NCCN)cc3c2C(C)C)cc1OC` [Example 117, N-(2-aminoethyl)-2-((2-(3,4-dimethoxyphenyl)-3-isopropyl-1H-indol-5-yl)oxy)acetamide] was tested. Which IC50 [1] did it give?
**A.** 0.12 µM

**Q.** What about the IC50 [2] of the same compound?
**A.** 0.0361 µM

**Q.** What about the IC50 [3] of the same compound?
**A.** 1.57 µM

**Q.** For `CCc1c(-c2ccc(OC)c(OC)c2)[nH]c2ccc(OC3CCN(C4CCN(CC(C)C)CC4)CC3)cc12` [Example 118, 2-(3,4-dimethoxyphenyl)-3-ethyl-5-((1′-isobutyl-[1,4′-bipiperidin]-4-yl)oxy)-1H-indole], which IC50 [1] is on record?
**A.** 0.38 µM

**Q.** And the IC50 [2]?
**A.** 0.009 µM

**Q.** What about the IC50 [3] of the same compound?
**A.** 0.309 µM

**Q.** `COc1ccc(-c2[nH]c3ccc(OCC(=O)NC[C@H]4CCNC4)cc3c2C(C)C)cc1OC` [Example 119, (S)-2-((2-(3,4-dimethoxyphenyl)-3-isopropyl-1H-indol-5-yl)oxy)-N-(pyrrolidin-3-ylmethyl)acetamide] was tested. Which IC50 [1] did it give?
**A.** 0.109 µM

**Q.** And the IC50 [2]?
**A.** 0.177 µM

**Q.** And the IC50 [3]?
**A.** 2.7 µM

**Q.** Which results are given for `COc1ccc(-c2[nH]c3ccc(OCC(=O)N4CCC[C@H](N)C4)cc3c2C(C)C)cc1OC` [Example 120, (S)-1-(3-aminopiperidin-1-yl)-2-((2-(3,4-dimethoxyphenyl)-3-isopropyl-1H-indol-5-yl)oxy)ethan-1-one]?
**A.** IC50 [1]: 0.0955 µM; IC50 [2]: 0.0469 µM; IC50 [3]: 2.66 µM

**Q.** `COc1ccc(-c2[nH]c3ccc(OCC(=O)N(C)C4CN5CCC4CC5)cc3c2C(C)C)cc1OC` (stereo not drawn) [Example 121, 2-((2-(3,4-dimethoxyphenyl)-3-isopropyl-1H-indol-5-yl)oxy)-N-methyl-N-((1s,4s)-quinuclidin-3-yl)acetamide] was tested. Which IC50 [1] did it give?
**A.** 0.0268 µM

**Q.** What about the IC50 [2] of the same compound?
**A.** 0.0577 µM

**Q.** What about the IC50 [3] of the same compound?
**A.** 3.55 µM

**Q.** For `COc1ccc(-c2[nH]c3ccc(OCC(=O)N4CCCC(CCN)C4)cc3c2C(C)C)cc1OC` (stereo not drawn) [Example 122, 1-(3-(2-aminoethyl)piperidin-1-yl)-2-((2-(3,4-dimethoxyphenyl)-3-isopropyl-1H-indol-5-yl)oxy)ethan-1-one], which IC50 [1] is on record?
**A.** 0.328 µM

**Q.** What about the IC50 [2] of the same compound?
**A.** 0.113 µM

**Q.** And the IC50 [3]?
**A.** 1.01 µM

**Q.** `COc1ccc(-c2[nH]c3ccc(OCC(=O)N4CCC[C@]5(CCCC[C@@H]5N)C4)cc3c2C(C)C)cc1OC` [Example 123, 1-((6R,7S)-7-amino-2-azaspiro[5.5]undecan-2-yl)-2-((2-(3,4-dimethoxyphenyl)-3-isopropyl-1H-indol-5-yl)oxy)ethan-1-one] was tested. Which IC50 [1] did it give?
**A.** 0.164 µM

**Q.** What about the IC50 [2] of the same compound?
**A.** 0.227 µM

**Q.** What about the IC50 [3] of the same compound?
**A.** 2.31 µM

**Q.** Which results are given for `COc1ccc(-c2[nH]c3ccc(OCC(=O)NC4CC[C@H]5CC[C@@H]4N5C)cc3c2C(C)C)cc1OC` (stereo partly drawn) [Example 124, 2-((2-(3,4-dimethoxyphenyl)-3-isopropyl-1H-indol-5-yl)oxy)-N-((5S)-8-methyl-8-azabicyclo[3.2.1]octan-2-yl)acetamide]?
**A.** IC50 [1]: 0.227 µM; IC50 [2]: 0.0512 µM; IC50 [3]: 4.03 µM

**Q.** Which results are given for `COc1ccc(-c2[nH]c3ccc(OCC(=O)NC4CN5CCC4CC5)cc3c2C(C)C)cc1OC` (stereo not drawn) [Example 125, 2-((2-(3,4-dimethoxyphenyl)-3-isopropyl-1H-indol-5-yl)oxy)-N-((1s,4s)-quinuclidin-3-yl)acetamide]?
**A.** IC50 [1]: 0.019 µM; IC50 [2]: 0.0444 µM; IC50 [3]: 6.33 µM

**Q.** What does the source list for `COc1ccc(-c2[nH]c3ccc(OCC(=O)NCC4CCCCN4)cc3c2C(C)C)cc1OC` (stereo not drawn) [Example 126, 2-((2-(3,4-dimethoxyphenyl)-3-isopropyl-1H-indol-5-yl)oxy)-N-(piperidin-2-ylmethyl)acetamide]?
**A.** IC50 [1]: 0.111 µM; IC50 [2]: 0.0128 µM; IC50 [3]: 1.9 µM

**Q.** `COc1ccc(-c2[nH]c3ccc(OCC(=O)N(C)C4CCCNC4)cc3c2C(C)C)cc1OC` (stereo not drawn) [Example 127, 2-((2-(3,4-dimethoxyphenyl)-3-isopropyl-1H-indol-5-yl)oxy)-N-methyl-N-(piperidin-3-yl)acetamide] was tested. Which IC50 [1] did it give?
**A.** 0.0352 µM

**Q.** And the IC50 [2]?
**A.** 0.0153 µM

**Q.** And the IC50 [3]?
**A.** 0.858 µM

**Q.** With `COc1ccc(-c2[nH]c3ccc(OCC(=O)NC4CCCC(N)C4)cc3c2C(C)C)cc1OC` (stereo not drawn) [Example 128, N-(3-aminocyclohexyl)-2-((2-(3,4-dimethoxyphenyl)-3-isopropyl-1H-indol-5-yl)oxy) acetamide] as the compound, how does the IC50 [1] read?
**A.** 0.0621 µM

**Q.** And the IC50 [2]?
**A.** 0.0542 µM

**Q.** And the IC50 [3]?
**A.** 0.576 µM
